Assay [1] deals with T1, Signal transducer and activator of transcription 5A (Homo sapiens, UniProt P42229).
T1 sequence (P42229 whole entry): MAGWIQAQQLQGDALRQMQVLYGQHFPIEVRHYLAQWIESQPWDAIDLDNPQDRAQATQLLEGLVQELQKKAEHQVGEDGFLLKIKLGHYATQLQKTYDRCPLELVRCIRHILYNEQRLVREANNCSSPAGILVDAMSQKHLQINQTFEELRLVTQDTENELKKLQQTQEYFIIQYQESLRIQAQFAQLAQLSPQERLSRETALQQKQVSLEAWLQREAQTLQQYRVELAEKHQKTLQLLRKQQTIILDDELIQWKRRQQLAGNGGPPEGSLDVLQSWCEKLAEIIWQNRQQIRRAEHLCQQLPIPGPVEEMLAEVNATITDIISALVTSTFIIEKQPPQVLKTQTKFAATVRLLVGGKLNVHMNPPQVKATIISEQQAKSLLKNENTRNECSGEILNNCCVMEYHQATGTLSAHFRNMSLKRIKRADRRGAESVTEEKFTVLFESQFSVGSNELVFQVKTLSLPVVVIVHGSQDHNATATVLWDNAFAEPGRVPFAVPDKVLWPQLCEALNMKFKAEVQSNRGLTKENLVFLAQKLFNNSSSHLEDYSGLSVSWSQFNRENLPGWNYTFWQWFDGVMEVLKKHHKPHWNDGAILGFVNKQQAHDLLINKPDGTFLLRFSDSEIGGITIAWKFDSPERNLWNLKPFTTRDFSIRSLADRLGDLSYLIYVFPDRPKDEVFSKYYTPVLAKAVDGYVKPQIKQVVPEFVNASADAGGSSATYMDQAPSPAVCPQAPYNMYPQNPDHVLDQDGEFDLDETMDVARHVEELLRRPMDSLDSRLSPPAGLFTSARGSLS
As to the kind of experiment: Fluorescence Polarization Assay. The protocol:
(§1) For competition-based fluorescence polarization assays, the ability of the test compounds to displace fluorophore-labeled peptides from their respective binding proteins was analyzed as previously described.3 Peptide sequences were: STAT1: 5-carboxyfluorescein-GY(PO3H2)DKPHVL; STAT3: 5-carboxyfluorescein-GY(PO3H2)LPQTV-NH2; STAT4: 5-carboxyfluorescein-GY(PO3H2)LPQNID-OH; STAT5a and STAT5b: 5-carboxyfluorescein-GY(PO3H2)LVLDKW; STAT6: 5-carboxyfluorescein-GY(PO3H2)VPWQDLI-OH; Lck SH2: 5-carboxyfluorescein-GY(PO3H2)EEIP. Due to protein instability, STAT2 was not analyzed. Final concentration of 5-carboxyfluorescein-labeled peptides: 10 nM. […] Pipetting was carried out partly using a Biomek FX workstation (Beckman-Coulter). Pr
For orientation: Fluorescence polarisation rises when a labelled molecule tumbles more slowly, as on binding a larger partner.

Assay [2] has as its target T2, Signal transducer and activator of transcription 5B (Homo sapiens, UniProt P51692).
T2 sequence (P51692 whole entry): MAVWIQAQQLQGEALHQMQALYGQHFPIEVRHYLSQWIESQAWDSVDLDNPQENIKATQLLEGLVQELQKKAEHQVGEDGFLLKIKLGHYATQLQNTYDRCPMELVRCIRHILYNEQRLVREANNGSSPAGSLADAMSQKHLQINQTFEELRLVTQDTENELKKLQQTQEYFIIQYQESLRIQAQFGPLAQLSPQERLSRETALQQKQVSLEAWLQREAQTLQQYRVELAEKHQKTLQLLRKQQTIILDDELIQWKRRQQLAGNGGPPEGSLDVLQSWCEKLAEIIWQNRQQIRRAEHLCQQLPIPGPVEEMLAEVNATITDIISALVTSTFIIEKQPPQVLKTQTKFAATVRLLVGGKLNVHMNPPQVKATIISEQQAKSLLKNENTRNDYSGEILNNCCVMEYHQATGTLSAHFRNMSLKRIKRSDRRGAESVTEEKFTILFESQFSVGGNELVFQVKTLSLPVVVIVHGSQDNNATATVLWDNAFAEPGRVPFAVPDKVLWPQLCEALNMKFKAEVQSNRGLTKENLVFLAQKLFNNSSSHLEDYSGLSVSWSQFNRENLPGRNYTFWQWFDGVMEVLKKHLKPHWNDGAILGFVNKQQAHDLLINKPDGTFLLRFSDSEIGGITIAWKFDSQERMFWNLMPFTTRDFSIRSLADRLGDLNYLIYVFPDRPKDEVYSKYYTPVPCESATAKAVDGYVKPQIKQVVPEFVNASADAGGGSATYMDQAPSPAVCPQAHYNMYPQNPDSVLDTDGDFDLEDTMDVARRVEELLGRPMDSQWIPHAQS
As to the kind of experiment: Fluorescence Polarization Assay. The protocol:
as §1

The structures appear in SMILES notation.

By IC50 is commonly meant the concentration needed to halve the response being measured. High values mean lower potency, low ones higher potency. The Ki is the dissociation constant of the complex between target and ligand, obtained from inhibition or displacement. The low end stands for higher affinity, the high end for lower affinity. In assay [1], `COc1cc(CNC(=O)CCCCCCC(C)C)ccc1OP(=O)(O)O` [2-Methoxy-4-((8-methylnonanamido)methyl)phenyl dihydrogen phosphate (3a)] showed an IC50 of 152 µM and a Ki of 75 µM.

In assay [1], `CCCCCCCCC(=O)NCc1ccc(OP(=O)(O)O)c(OC)c1` [2-Methoxy-4-(nonanamidomethyl)phenyl dihydrogen phosphate (3b)] registered an IC50 of 98 µM and an inhibitory constant (Ki) of 49 µM. In assay [2], this compound came in with an IC50 of 196 µM and a Ki of 96 µM.

In assay [1], `CC(C)CCCCCCC(=O)NCc1ccc(OP(=O)(O)O)c(OP(=O)(O)O)c1` [4-((8-Methylnonanamido)methyl)-1,2-phenylene bis(dihydrogen phosphate) (6a)] returned an IC50 of 26.4 µM and a Ki of 13 µM. In addition, in assay [2], the midpoint of inhibition, the IC50, lay at 0.75 µM and the Ki was determined as 0.34 µM.

`CCCCCCCCC(=O)NCc1ccc(OP(=O)(O)O)c(OP(=O)(O)O)c1` [4-(Nonanamidomethyl)-1,2-phenylene bis(dihydrogen phosphate) (6b)]: in assay [1], the concentration for half-maximal inhibition (IC50) was 24.9 µM and the Ki was 12.3 µM. In assay [2], this compound displayed an IC50 of 0.86 µM and a Ki of 0.39 µM.
